≈ marks a conversion by molar mass, not a printed value. Calls of active or inactive are those of the source. The calls are words filed in the database; no cut-off is given here.
Key:
Staphylococcus aureus [1] = assay: Antibacterial activity against vancomycin-intermediate resistant Staphylococcus aureus clinical isolate after 24 hrs by broth microdilution method; format: functional
Staphylococcus aureus [2] = assay: Antibacterial activity against vancomycin-intermediate resistant Staphylococcus aureus clinical isolate in presence of 30% bovine serum after 24 hrs by broth microdilution method; format: functional
[3] = Toxicity assessed as hemolysis in erythrocytes at 600 mg/L; format: cell-based, Erythrocyte; settings: human, read-out: Activity
Candida albicans = assay: Antifungal activity against Candida albicans SKF-2270 after 24 hrs by broth microdilution method; format: functional; settings: read-out: MIC
Enterococcus faecium [4] = assay: Antibacterial activity against vancomycin A-resistant Enterococcus faecium clinical isolate in presence of 30% bovine serum after 24 hrs by broth microdilution method; format: functional
Staphylococcus aureus [5] = assay: Antibacterial activity against methicillin-resistant and vancomycin-intermediate resistant Staphylococcus aureus clinical isolate after 24 hrs by broth microdilution method; format: functional; settings: read-out: MIC
Enterococcus faecalis [6] = assay: Antibacterial activity against vancomycin-resistant Enterococcus faecalis in presence of 30% bovine serum after 24 hrs by broth microdilution method; format: functional
Enterococcus faecium [7] = assay: Antibacterial activity against Enterococcus faecium after 24 hrs by broth microdilution method; format: functional; settings: for MIC: read-out: MIC
Staphylococcus aureus [8] = assay: Antibacterial activity against Staphylococcus aureus Smith after 24 hrs by broth microdilution method; format: functional; settings: read-out: MIC
Staphylococcus aureus [9] = assay: Antibacterial activity against Staphylococcus aureus Smith in presence of 30% bovine serum after 24 hrs by broth microdilution method; format: functional
Streptococcus pyogenes = assay: Antibacterial activity against Streptococcus pyogenes C203 after 24 hrs by broth microdilution method; format: functional; settings: C203, 24 h, read-out: MIC
[10] = Toxicity assessed as hemolysis in erythrocytes at 300 mg/L; format: cell-based, Erythrocyte; settings: human, read-out: Activity
[11] = Toxicity assessed as hemolysis in erythrocytes at 1200 mg/L; format: cell-based, Erythrocyte; settings: human, read-out: Activity
Staphylococcus aureus [12] = assay: Antibacterial activity against methicillin-resistant Staphylococcus aureus clinical isolate after 24 hrs by broth microdilution method; format: functional; settings: read-out: MIC
Escherichia coli = assay: Antibacterial activity against Escherichia coli SKF-12140 after 24 hrs by broth microdilution method; format: functional; settings: read-out: MIC
Enterococcus faecium [13] = assay: Antibacterial activity against vancomycin A-resistant Enterococcus faecium clinical isolate after 24 hrs by broth microdilution method; format: functional; settings: read-out: MIC
Enterococcus faecalis [14] = assay: Antibacterial activity against vancomycin A-resistant Enterococcus faecalis after 24 hrs by broth microdilution method; format: functional; settings: read-out: MIC
Enterococcus faecalis [15] = assay: Antibacterial activity against Enterococcus faecalis after 24 hrs by broth microdilution method; format: functional; settings: read-out: MIC
[16] = Toxicity assessed as hemolysis in erythrocytes at 90 mg/L; format: cell-based, Erythrocyte; settings: human, erythrocytes; read-out: Activity
[17] = Toxicity assessed as hemolysis in erythrocytes at 180 mg/L; format: cell-based, Erythrocyte; settings: human, erythrocytes; read-out: Activity

Structure (SMILES)	MIC (Staphylococcus aureus [1]) [µg/mL]	MIC (Staphylococcus aureus [2]) [µg/mL]	hemolysis at 600 mg/L [3] [%]	MIC (Candida albicans) [µg/mL]	MIC (Enterococcus faecium [4]) [µg/mL]	MIC (Staphylococcus aureus [5]) [µg/mL]	MIC (Enterococcus faecalis [6]) [µg/mL]	MIC (Staphylococcus aureus [8]) [µg/mL]	MIC (Staphylococcus aureus [9]) [µg/mL]	MIC (Streptococcus pyogenes) [µg/mL]	hemolysis at 300 mg/L [10] [%]	hemolysis at 1200 mg/L [11] [%]	MIC (Staphylococcus aureus [12]) [µg/mL]	MIC (Escherichia coli) [µg/mL]	MIC (Enterococcus faecium [13]) [µg/mL]	MIC (Enterococcus faecalis [14]) [µg/mL]	MIC (Enterococcus faecalis [15]) [µg/mL]	MIC (Enterococcus faecium [7]) [µg/mL]	also measured
Cc1ccccc1C(C)C(=O)N[C@@H](CC(N)=O)C(=O)NC[C@@H]1C(=O)N[C@H](c2ccc(O)cc2)C(=O)N[C@H](CCCN)C(=O)N[C@H](C(C)C)C(=O)N[C@@H](c2ccc(O)cc2)C(=O)N[C@H](c2ccc(O)cc2)C(=O)N[C@@H]([C@@H](C)O)C(=O)N[C@@H](Cc2ccccc2)C(=O)N[C@H](CCCN)C(=O)N[C@@H](c2ccc(O[C@H]3O[C@H](CO)[C@@H](O)[C@H](O)[C@@H]3O[C@H]3O[C@H](CO)[C@@H](O)[C@H](O)[C@@H]3O)cc2)C(=O)N[C@H]([C@@H](C)O)C(=O)N[C@@H](c2ccc(O)cc2)C(=O)NCC(=O)N[C@@H](CC(C)C)C(=O)N[C@H](C)C(=O)N[C@@H](c2ccc(O)c(Cl)c2)C(=O)O[C@@H]1C(N)=O (stereo partly drawn)	2 (≈ 0.776 µM)	4	4	> 128	8	4 (≈ 1.55 µM)	2	0.25 (≈ 0.097 µM)	1	≤ 0.125	2	45	0.5 (≈ 0.194 µM)	> 128	1 (≈ 0.388 µM)	1 (≈ 0.388 µM)	0.5 (≈ 0.194 µM)		Activity (Enterococcus faecium [7]): inactive
Cc1cc(C)cc(CC(=O)N[C@@H](CC(N)=O)C(=O)NC[C@@H]2C(=O)N[C@H](c3ccc(O)cc3)C(=O)N[C@H](CCCN)C(=O)N[C@H](C(C)C)C(=O)N[C@@H](c3ccc(O)cc3)C(=O)N[C@H](c3ccc(O)cc3)C(=O)N[C@@H]([C@@H](C)O)C(=O)N[C@@H](Cc3ccccc3)C(=O)N[C@H](CCCN)C(=O)N[C@@H](c3ccc(O[C@H]4O[C@H](CO)[C@@H](O)[C@H](O)[C@@H]4O[C@H]4O[C@H](CO)[C@@H](O)[C@H](O)[C@@H]4O)cc3)C(=O)N[C@H]([C@@H](C)O)C(=O)N[C@@H](c3ccc(O)cc3)C(=O)NCC(=O)N[C@@H](CC(C)C)C(=O)N[C@H](C)C(=O)N[C@@H](c3ccc(O)c(Cl)c3)C(=O)O[C@@H]2C(N)=O)c1	0.5 (≈ 0.194 µM)	4	18	> 128	2	1 (≈ 0.388 µM)	1	≤ 0.125	1	≤ 0.125	0	87	≤ 0.125	> 128	≤ 0.125		≤ 0.125	0.25 (≈ 0.097 µM)	
Cc1ccc(CC(=O)N[C@@H](CC(N)=O)C(=O)NC[C@@H]2C(=O)N[C@H](c3ccc(O)cc3)C(=O)N[C@H](CCCN)C(=O)N[C@H](C(C)C)C(=O)N[C@@H](c3ccc(O)cc3)C(=O)N[C@H](c3ccc(O)cc3)C(=O)N[C@@H]([C@@H](C)O)C(=O)N[C@@H](Cc3ccccc3)C(=O)N[C@H](CCCN)C(=O)N[C@@H](c3ccc(O[C@H]4O[C@H](CO)[C@@H](O)[C@H](O)[C@@H]4O[C@H]4O[C@H](CO)[C@@H](O)[C@H](O)[C@@H]4O)cc3)C(=O)N[C@H]([C@@H](C)O)C(=O)N[C@@H](c3ccc(O)cc3)C(=O)NCC(=O)N[C@@H](CC(C)C)C(=O)N[C@H](C)C(=O)N[C@@H](c3ccc(O)c(Cl)c3)C(=O)O[C@@H]2C(N)=O)cc1.Cl	2	4	11	> 128	2	4	2	≤ 0.125	0.5	≤ 0.125	2	9	≤ 0.125	> 128	0.5	≤ 0.125	0.25	0.5	hemolysis at 90 mg/L [16]: 0%; hemolysis at 180 mg/L [17]: 0%
Cc1cccc(CC(=O)N[C@@H](CC(N)=O)C(=O)NC[C@@H]2C(=O)N[C@H](c3ccc(O)cc3)C(=O)N[C@H](CCCN)C(=O)N[C@H](C(C)C)C(=O)N[C@@H](c3ccc(O)cc3)C(=O)N[C@H](c3ccc(O)cc3)C(=O)N[C@@H]([C@@H](C)O)C(=O)N[C@@H](Cc3ccccc3)C(=O)N[C@H](CCCN)C(=O)N[C@@H](c3ccc(O[C@H]4O[C@H](CO)[C@@H](O)[C@H](O)[C@@H]4O[C@H]4O[C@H](CO)[C@@H](O)[C@H](O)[C@@H]4O)cc3)C(=O)N[C@H]([C@@H](C)O)C(=O)N[C@@H](c3ccc(O)cc3)C(=O)NCC(=O)N[C@@H](CC(C)C)C(=O)N[C@H](C)C(=O)N[C@@H](c3ccc(O)c(Cl)c3)C(=O)O[C@@H]2C(N)=O)c1	1 (≈ 0.39 µM)	4	0	> 128	4	2 (≈ 0.781 µM)	1	≤ 0.125	1	≤ 0.125	0	5	0.25 (≈ 0.0976 µM)	> 128	0.5 (≈ 0.195 µM)	≤ 0.125	0.25 (≈ 0.0976 µM)	0.5 (≈ 0.195 µM)	
CC(C)C[C@@H]1NC(=O)CNC(=O)[C@H](c2ccc(O)cc2)NC(=O)[C@@H]([C@@H](C)O)NC(=O)[C@H](c2ccc(O[C@H]3O[C@H](CO)[C@@H](O)[C@H](O)[C@@H]3O[C@H]3O[C@H](CO)[C@@H](O)[C@H](O)[C@@H]3O)cc2)NC(=O)[C@@H](CCCN)NC(=O)[C@H](Cc2ccccc2)NC(=O)[C@H]([C@@H](C)O)NC(=O)[C@@H](c2ccc(O)cc2)NC(=O)[C@H](c2ccc(O)cc2)NC(=O)[C@@H](C(C)C)NC(=O)[C@@H](CCCN)NC(=O)[C@@H](c2ccc(O)cc2)NC(=O)[C@@H](CNC(=O)[C@H](CC(N)=O)NC(=O)Cc2ccccc2[N+](=O)[O-])[C@@H](C(N)=O)OC(=O)[C@H](c2ccc(O)c(Cl)c2)NC(=O)[C@@H](C)NC1=O	2 (≈ 0.771 µM)	4	0	> 128	8	4 (≈ 1.54 µM)	2	0.5 (≈ 0.193 µM)	1	≤ 0.125	1	0	1 (≈ 0.386 µM)	> 128	2 (≈ 0.771 µM)	1 (≈ 0.386 µM)	2 (≈ 0.771 µM)	4 (≈ 1.54 µM)	
CC(C)C[C@@H]1NC(=O)CNC(=O)[C@H](c2ccc(O)cc2)NC(=O)[C@@H]([C@@H](C)O)NC(=O)[C@H](c2ccc(O[C@H]3O[C@H](CO)[C@@H](O)[C@H](O)[C@@H]3O[C@H]3O[C@H](CO)[C@@H](O)[C@H](O)[C@@H]3O)cc2)NC(=O)[C@@H](CCCN)NC(=O)[C@H](Cc2ccccc2)NC(=O)[C@H]([C@@H](C)O)NC(=O)[C@@H](c2ccc(O)cc2)NC(=O)[C@H](c2ccc(O)cc2)NC(=O)[C@@H](C(C)C)NC(=O)[C@@H](CCCN)NC(=O)[C@@H](c2ccc(O)cc2)NC(=O)[C@@H](CNC(=O)[C@H](CC(N)=O)NC(=O)Cc2ccccc2C(F)(F)F)[C@@H](C(N)=O)OC(=O)[C@H](c2ccc(O)c(Cl)c2)NC(=O)[C@@H](C)NC1=O	1 (≈ 0.382 µM)	4	5	> 128	2	2 (≈ 0.764 µM)	0.5	≤ 0.125	1	≤ 0.125	3	51	≤ 0.125	> 128	0.25 (≈ 0.0956 µM)		≤ 0.125	0.5 (≈ 0.191 µM)	

Source: ChEMBL document CHEMBL1145390, “Synthesis and preliminary biological characterization of new semisynthetic derivatives of ramoplanin” (J Med Chem, 2007)
